Assay results reported in US20100298141A1, “SUBSTITUTED PYRIDINE N-OXIDE HERBICIDES” (E. I. DU PONT DE NEMOURS AND COMPANY, priority 2007, published 2010).

How the values were obtained:
Conditions in all cases: scale 0 to 100
broadleaf signalgrass = assay: Test G preemergence test; type: in vivo, Brachiaria platyphylla
millet = assay: Test G preemergence test; type: in vivo, Panicum miliaceum
littleseed canarygrass = assay: Test D preemergence test; type: in vivo, Phalaris minor
From the text: (§1) Seeds of plant species selected from annual bluegrass (Poa annua), blackgrass (Alopecurus myosuroides), downy bromegrass (Bromus tectorum), field violet (Viola arvensis), green foxtail (Setaria viridis), Italian ryegrass (Lolium multiflorum), littleseed canarygrass (Phalaris minor), spring wheat (Triticum aestivum), wild oat (Avena fatua), […]), winter barley (Hordeum vulgare), and winter wheat (Triticum aestivum) were planted and treated preemergence with test chemicals formulated in a non-phytotoxic solvent mixture which included a surfactant. […] A dash (-) response means no test result.

winter wheat = assay: Test D preemergence test; type: in vivo, Triticum aestivum
From the text: as §1

spring wheat = assay: Test D preemergence test; type: in vivo, Triticum aestivum
From the text: as §1

corn = assay: Test G preemergence test; type: in vivo, Zea mays
field violet = assay: Test D preemergence test; type: in vivo, Viola arvensis
From the text: as §1

green foxtail = assay: Test D preemergence test; type: in vivo, Setaria viridis
From the text: as §1

sorghum = assay: Test G preemergence test; type: in vivo, Sorghum vulgare
millet foxtail = assay: Test G preemergence test; type: in vivo, Setaria italica
Italian ryegrass = assay: Test D preemergence test; type: in vivo, Lolium multiflorum
From the text: as §1

downy bromegrass = assay: Test D preemergence test; type: in vivo, Bromus tectorum
From the text: as §1

wild oat = assay: Test D preemergence test; type: in vivo, Avena fatua
From the text: as §1

cotton = assay: Test G preemergence test; type: in vivo, Gossypium hirsutum
woolly cupgrass = assay: Test G preemergence test; type: in vivo, Eriochloa villosa
annual bluegrass = assay: Test D preemergence test; type: in vivo, Poa annua
From the text: as §1

yellow foxtail = assay: Test G preemergence test; type: in vivo, Pennisetum glaucum
itchgrass = assay: Test G preemergence test; type: in vivo, Rottboellia cochinchinensis
tall waterhemp = assay: Test G preemergence test; type: in vivo, Amaranthus tuberculatos
blackgrass = assay: Test D preemergence test; type: in vivo, Alopecurus myosuroides
From the text: as §1

eastern black nightshade = assay: Test G preemergence test; type: in vivo, Solanum ptycanthum
goosegrass = assay: Test G preemergence test; type: in vivo, Eleusine indica
barnyardgrass = assay: Test G preemergence test; type: in vivo, Echinochloa crus-galli

Cn1nc(C(F)(F)F)c(C(Cl)S(=O)(=O)c2cccc[n+]2[O-])c1Cl (centres unmarked) [Compound 12]
Plant response rating, Signalgrass (broadleaf signalgrass; 31 g ai/ha): 0
Plant response rating, Signalgrass (broadleaf signalgrass; 62 g ai/ha): 0
Plant response rating, Signalgrass (broadleaf signalgrass; 125 g ai/ha): 75
Plant response rating, Signalgrass (broadleaf signalgrass; 250 g ai/ha): 75
Plant response rating, Millet (millet; 31 g ai/ha): 50
Plant response rating, Millet (millet; 62 g ai/ha): 50
Plant response rating, Millet (millet; 125 g ai/ha): 100
Plant response rating, Millet (millet; 250 g ai/ha): 100
Plant response rating, Canarygrass (littleseed canarygrass; 31 g ai/ha): 0
Plant response rating, Canarygrass (littleseed canarygrass; 62 g ai/ha): 0
Plant response rating, Canarygrass (littleseed canarygrass; 125 g ai/ha): 75
Plant response rating, Canarygrass (littleseed canarygrass; 250 g ai/ha): 100
Plant response rating, Wheat, Winter (winter wheat; 31 g ai/ha): 0
Plant response rating, Wheat, Winter (winter wheat; 62 g ai/ha): 0
Plant response rating, Wheat, Winter (winter wheat; 125 g ai/ha): 0
Plant response rating, Wheat, Winter (winter wheat; 250 g ai/ha): 0
Plant response rating, Wheat, Spring (spring wheat; 31 g ai/ha): 0
Plant response rating, Wheat, Spring (spring wheat; 62 g ai/ha): 0
Plant response rating, Wheat, Spring (spring wheat; 125 g ai/ha): 0
Plant response rating, Wheat, Spring (spring wheat; 250 g ai/ha): 0
Plant response rating, Corn (corn; 31 g ai/ha): 0
Plant response rating, Corn (corn; 62 g ai/ha): 0
Plant response rating, Corn (corn; 125 g ai/ha): 0
Plant response rating, Corn (corn; 250 g ai/ha): 0
Plant response rating, Field Violet (field violet; 31 g ai/ha): 0
Plant response rating, Field Violet (field violet; 62 g ai/ha): 0
Plant response rating, Field Violet (field violet; 125 g ai/ha): 0
Plant response rating, Field Violet (field violet; 250 g ai/ha): 40
Plant response rating, Foxtail, Green (green foxtail; 31 g ai/ha): 55
Plant response rating, Foxtail, Green (green foxtail; 62 g ai/ha): 60
Plant response rating, Foxtail, Green (green foxtail; 125 g ai/ha): 65
Plant response rating, Foxtail, Green (green foxtail; 250 g ai/ha): 100
Plant response rating, Sorghum (sorghum; 31 g ai/ha): 0
Plant response rating, Sorghum (sorghum; 62 g ai/ha): 0
Plant response rating, Sorghum (sorghum; 125 g ai/ha): 60
Plant response rating, Sorghum (sorghum; 250 g ai/ha): 100
Plant response rating, Foxtail, Millet (millet foxtail; 31 g ai/ha): 45
Plant response rating, Foxtail, Millet (millet foxtail; 62 g ai/ha): 75
Plant response rating, Foxtail, Millet (millet foxtail; 125 g ai/ha): 100
Plant response rating, Foxtail, Millet (millet foxtail; 250 g ai/ha): 100
Plant response rating, Ryegrass, Italian (Italian ryegrass; 31 g ai/ha): 0
Plant response rating, Ryegrass, Italian (Italian ryegrass; 62 g ai/ha): 0
Plant response rating, Ryegrass, Italian (Italian ryegrass; 125 g ai/ha): 70
Plant response rating, Ryegrass, Italian (Italian ryegrass; 250 g ai/ha): 100
Plant response rating, Bromegrass, Downy (downy bromegrass; 31 g ai/ha): 0
Plant response rating, Bromegrass, Downy (downy bromegrass; 62 g ai/ha): 0
Plant response rating, Bromegrass, Downy (downy bromegrass; 125 g ai/ha): 60
Plant response rating, Bromegrass, Downy (downy bromegrass; 250 g ai/ha): 60
Plant response rating, Oat, Wild (wild oat; 31 g ai/ha): 0
Plant response rating, Oat, Wild (wild oat; 62 g ai/ha): 0
Plant response rating, Oat, Wild (wild oat; 125 g ai/ha): 0
Plant response rating, Oat, Wild (wild oat; 250 g ai/ha): 0
Plant response rating, Cotton (cotton; 31 g ai/ha): 0
Plant response rating, Cotton (cotton; 62 g ai/ha): 0
Plant response rating, Cotton (cotton; 125 g ai/ha): 0
Plant response rating, Cotton (cotton; 250 g ai/ha): 0
Plant response rating, Cupgrass, Woolly (woolly cupgrass; 31 g ai/ha): 0
Plant response rating, Cupgrass, Woolly (woolly cupgrass; 62 g ai/ha): 0
Plant response rating, Cupgrass, Woolly (woolly cupgrass; 125 g ai/ha): 65
Plant response rating, Cupgrass, Woolly (woolly cupgrass; 250 g ai/ha): 70
Plant response rating, Bluegrass (annual bluegrass; 31 g ai/ha): 60
Plant response rating, Bluegrass (annual bluegrass; 62 g ai/ha): 100
Plant response rating, Bluegrass (annual bluegrass; 125 g ai/ha): 100
Plant response rating, Bluegrass (annual bluegrass; 250 g ai/ha): 100
Plant response rating, Foxtail, Yellow (yellow foxtail; 31 g ai/ha): 95
Plant response rating, Foxtail, Yellow (yellow foxtail; 62 g ai/ha): 100
Plant response rating, Foxtail, Yellow (yellow foxtail; 125 g ai/ha): 100
Plant response rating, Foxtail, Yellow (yellow foxtail; 250 g ai/ha): 100
Plant response rating, Itchgrass (itchgrass; 31 g ai/ha): 0
Plant response rating, Itchgrass (itchgrass; 62 g ai/ha): 0
Plant response rating, Itchgrass (itchgrass; 125 g ai/ha): 0
Plant response rating, Itchgrass (itchgrass; 250 g ai/ha): 0
Plant response rating, Waterhemp (tall waterhemp; 31 g ai/ha): 0
Plant response rating, Waterhemp (tall waterhemp; 62 g ai/ha): 40
Plant response rating, Waterhemp (tall waterhemp; 125 g ai/ha): 95
Plant response rating, Waterhemp (tall waterhemp; 250 g ai/ha): 100
Plant response rating, Blackgrass (blackgrass; 31 g ai/ha): 0
Plant response rating, Blackgrass (blackgrass; 62 g ai/ha): 0
Plant response rating, Blackgrass (blackgrass; 125 g ai/ha): 100
Plant response rating, Blackgrass (blackgrass; 250 g ai/ha): 100
Plant response rating, Nightshade (eastern black nightshade; 31 g ai/ha): 0
Plant response rating, Nightshade (eastern black nightshade; 62 g ai/ha): 0
Plant response rating, Nightshade (eastern black nightshade; 125 g ai/ha): 0
Plant response rating, Nightshade (eastern black nightshade; 250 g ai/ha): 70
Plant response rating, Goosegrass (goosegrass; 31 g ai/ha): 100
Plant response rating, Goosegrass (goosegrass; 62 g ai/ha): 100
Plant response rating, Goosegrass (goosegrass; 125 g ai/ha): 100
Plant response rating, Goosegrass (goosegrass; 250 g ai/ha): 100
Plant response rating, Barnyardgrass (barnyardgrass; 31 g ai/ha): 65
Plant response rating, Barnyardgrass (barnyardgrass; 62 g ai/ha): 95
Plant response rating, Barnyardgrass (barnyardgrass; 125 g ai/ha): 100
Plant response rating, Barnyardgrass (barnyardgrass; 250 g ai/ha): 100
